Legend:
[1] = End point (maximum) amount of water miscible solvent in hydrated DB; format: physicochemical; conditions: MV alginate, 1:1.25 alginate:water
Method: Hydrated DB beads were prepared as example 1 using MV alginate. In this case, the water was used to achieve alginate within the hydrated beads to be 44.44% (w/w), which means 125 mL water and 100 g MV alginate (1:1.25 alginate:water ratio). WMS were propylene glycols (PG), glycerol, polyethylene glycol (PEG400) and absolute ethanol. Then, different amounts of volatile and non-volatile water miscible solvents (WMS) were added slowly to the hydrated beads under high shear mixing. The end point (the optimized amount of WMS) was calculated by monitoring physical properties of hydrated beads including size and hardness as described in examples 1 & 2. […] Beads then were cross-linked, washed and dried as described in example 1.
The end point (end point ratio by weight (alginate:water:WMS)) in table 14 means the maximum amount of WMS that allows to obtain acceptable bead hardness (more than 1 kg/cm^2/g beads) and acceptable size range of both wet and dry beads according to the established criteria in table 3 and 4, example 1.

[2] = Limonene loss post baking of pancakes (gas chromatography); format: physicochemical; conditions: pancakes baked at 200° C. for 15 min
Method: The amount of D-limonene was assayed pre and post baking. For this purpose, 10 ml of distilled water was added to 5 g pancakes. Then, 30 ml methanol was added and the mixture was centrifuged at 3000 rpm for 20 min for further assay by gas chromatography. The % of lost limonene post packing as the following equation and expressed as the % of lost limonene post packing (w/w): % of lost limonene post baking (w/w)=(Initial amount added before backing−Residual amount of limonene found in baked pancakes)[…] Results

| SMILES | Total maximum amount of WMS expressed as % w/w [1] | The % of lost limonene one day post packing (w/w), Mean ([2]; one day) | The % of lost limonene one month post packing (w/w), Mean ([2]; one month) |
| --- | --- | --- | --- |
| CCO [Ethanol, absolute ethanol] | 25.00 % w/w | – | – |
| C=C(C)[C@H]1CC=C(C)CC1 [Free limonene, (4R)-1-methyl-4-(1-methylethenyl)-cyclohexene] | – | 89.56 % (w/w) | 93.23 % (w/w) |
| OCC(O)CO [Glycerol, glycerol] | 34.78 % w/w | – | – |
| CC(O)CO (centres unmarked) [Propylene glycols (PG), propylene glycols] | 36.61 % w/w | – | – |
